This is an account of results in US9469615B2, “Quinoxalines and AZA-quinoxalines as CRTH2 receptor modulators” (Merck Sharp & Dohme Corp., priority 2010, dated 2016).

The assay concerns the target T1, hCRTH2 (Homo sapiens, UniProt Q9Y5Y4).
T1 construct: expressed in transfected cells; host or cells: HEK (human embryonic kidney) cells expressing hCRTH2; membrane preparation
T1 sequence (Q9Y5Y4 1-395): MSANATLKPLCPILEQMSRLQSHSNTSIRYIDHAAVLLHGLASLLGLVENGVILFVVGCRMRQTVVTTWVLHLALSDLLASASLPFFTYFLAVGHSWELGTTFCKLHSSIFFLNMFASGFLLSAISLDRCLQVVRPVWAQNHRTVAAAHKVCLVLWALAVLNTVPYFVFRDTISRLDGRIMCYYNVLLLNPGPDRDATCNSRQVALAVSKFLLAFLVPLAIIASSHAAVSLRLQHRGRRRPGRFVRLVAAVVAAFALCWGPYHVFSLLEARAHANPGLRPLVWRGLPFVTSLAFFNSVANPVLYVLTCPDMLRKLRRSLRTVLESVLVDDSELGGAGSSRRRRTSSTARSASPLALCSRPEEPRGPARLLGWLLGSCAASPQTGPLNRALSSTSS
Kind of assay: Radioligand binding assay ([3H]PGD2 competition, HEK-hCRTH2 membranes). Here is the method: Biological Assays Radioligand Binding Assay.
Radioligand binding assays were performed at room temperature in 50 mM Tris-HCl pH 7.4, 1 mM EDTA containing 2 mM MnCl2 and 3.0 nM [^3H]PGD2 (New England Nuclear, Boston, Mass.) (171 Ci mmol^−1), in a final volume of 0.2 mL. Competing ligands were diluted in dimethylsulfoxide (Me2SO) that was kept constant at 1% (v/v) of the final incubation volume. The reaction was initiated by the addition of 8-20 μg of membrane protein prepared from a human embryonic kidney (HEK)-hCRTH2 cell line. Total and non-specific binding were determined in the absence and the presence of 10 μM PGD2, respectively. […] The reaction was routinely conducted for 60 min at room temperature and terminated by rapid filtration through prewetted (0.3% polyethyleneimine) 96-well printed Filtermate™ (Wallac) using a Tomtec® harvester (Hamden, Conn.). After washing with cold buffer, the filter was dried for 2 minutes in microwave, and Meltilex Scintillator sheet (Wallac) was melted on for 2 min. The radioactivity was measured with Betaplate model 1205 (Wallac).

Setting [1] is: [3H]PGD2 binding, rated A-E (Table A).
The mark [2] stands for this setting: [3H]PGD2 binding, values in text.

Under “[3H]PGD2 competition, Table B”, `C[C@@H](CCc1nc2cc(C(=O)N[C@@H]3CCCc4ccccc43)ccc2nc1-c1ccccc1)CC(=O)O` [compound 293, (S)-3-methyl-S-(3-phenyl-7-(((R)-1,2,3,4-tetrahydronaphthalen-1-yl)carbamoyl)quinoxalin-2-yl)pentanoic acid] displayed a Ki of 0.0021 to 0.02 µM.

For `CN(Cc1ccccc1)C(=O)c1ccc2nc(-c3ccccc3)c(CCCCC(=O)O)nc2c1` [15Ao, 5-{7-[benzyl(methyl)carbamoyl]-3-phenylquinoxalin-2-yl}pentanoic acid], the Ki is 0.0001 to 0.002 µM under setting [1] and 0.001 µM under setting [2]. Consider `O=C(NCc1cccc(Cl)c1)c1ccc2nc(-c3ccccc3)c(CCCCc3nnn[nH]3)nc2c1` [22D, N-[(3-chlorophenyl)methyl]-2-phenyl-3-[4-(1H-tetrazol-5-yl)butyl]-6-quinoxalinecarboxamide], for which the Ki under setting [1] is 0.0201 to 0.2 µM.

For `O=C(O)CCCCc1nc2cc(C(=O)N[C@@H]3CCOc4ccc(F)cc43)ccc2nc1-c1ccc(F)cc1` [compound 537, (R)-5-(7((6-fluorochroman-4-yl)carbamoyl)-3-(4-fluorophenyl)quinoxalin-2-yl)pentanoic acid], where the note is “[3H]PGD2 competition, Table B”, the Ki is 0.0021 to 0.02 µM. In turn, `O=C(O)CCCCc1nc2cc(C(=O)N3CCN(c4nccs4)CC3)ccc2nc1-c1ccc(Cl)cc1` [compound 601, 5-(3-(4-chlorophenyl)-7-(4-(thiazol-2-yl)piperazine-1-carbonyl)quinoxalin-2-yl)pentanoic acid] had a Ki ([3H]PGD2 competition, Table B) of 0.0021 to 0.02 µM. The same measure, in the same setting: the result for `CC(CCCc1nc2cc(C(=O)N[C@@H]3CCCc4cc(F)ccc43)ccc2nc1-c1ccccc1)C(=O)O` (stereo partly drawn) [compound 459, 5-(7-(((R)-6-fluoro-1,2,3,4-tetrahydronaphthalen-1-yl)carbamoyl)-3-phenylquinoxalin-2-yl)-2-methylpentanoic acid] reads 0.0021 to 0.02 µM; that for `O=C(O)CCCCc1nc2cc(C(=O)NC3CCCc4cnccc43)ccc2nc1-c1ccccc1` (centres unmarked) [compound 505, 5-(3-phenyl-7-((5,6,7,8-tetrahydroisoquinolin-5-yl)carbamoyl)quinoxalin-2-yl)pentanoic acid], 0.0021 to 0.02 µM. Turning to `C[C@@H](NC(=O)c1ccc2nc(-c3ccccc3)c(CC[C@@H]3C[C@H]3C(=O)O)nc2c1)c1ccc(Cl)cc1` [compound 232, trans-2-[2-[7-[[[1(R)-(4-chlorophenyl)ethyl]amino]carbonyl]-3-phenyl-2-quinoxalinyl]ethyl] cyclopropanecarboxylic acid], under setting [1], the Ki fell in the range of 0.0021 to 0.02 µM. As for `Cc1cc2nc(-c3ccccc3)c(CCCCC(=O)O)nc2cc1C(=O)N[C@@H]1CCCc2ccccc21` [compound 526, (R)-5-(6-methyl-3-phenyl-7-((1,2,3,4-tetrahydronaphthalen-1-yl)carbamoyl)quinoxalin-2-yl)pentanoic acid], the Ki by setting is: under setting [2], 0.259 µM; ([3H]PGD2 competition, Table B) 0.201 to 0.7 µM. With `CN(C(=O)c1ccc2nc(-c3ccc(Cl)cc3)c(CCCCC(=O)O)nc2c1)C1NC(=O)c2ccccc21` (centres unmarked) [compound 336, 5-(3-(4-chlorophenyl)-7-(methyl(3-oxoisoindolin-1-yl)carbamoyl)quinoxalin-2-yl)pentanoic acid], the Ki ([3H]PGD2 competition, Table B) fell in the range of 0.0201 to 0.2 µM. As to `O=C(O)CCCCc1nc2cc(C(=O)N3CCN(c4ccccc4F)CC3)ccc2nc1-c1ccc(Cl)cc1` [compound 190, 3-(4-chlorophenyl)-7-[[4-(2-fluorophenyl)-1-piperazinyl]carbonyl]-2-quinoxalinepentanoic acid], under setting [1], the Ki is 0.0001 to 0.002 µM. `O=C(O)CCCCc1nc2cc(C(=O)N3C[C@H]4CC[C@@H]3CN4Cc3ccccc3)ccc2nc1-c1ccc(Cl)cc1` [compound 698, 5-(7-((1R,4R)-5-benzyl-2,5-diazabicyc1o[2.2.2]octane-2-carbonyl)-3-(4-chlorophenyl)quinoxalin-2-yl)pentanoic acid] had an inhibitory constant (Ki) ([3H]PGD2 competition, Table B) of 0.0021 to 0.02 µM.

Under “[3H]PGD2 competition, Table B”, `O=C(N[C@@H]1CCCc2ccccc21)c1ccc2nc(-c3ccccc3)c(CCCC(F)(F)C(=O)O)nc2c1` [compound 466, (R)-2,2-difluoro-5-(3-phenyl-7-((1,2,3,4-tetahydronaphthalen-1-yl)carbamoyl)quinoxalin-2-yl)pentanoic acid] returned a Ki of 0.0021 to 0.02 µM. For the compound `CC(NC(=O)c1ccc2nc(-c3ccc(C(F)(F)F)cc3)c(CCCCC(=O)O)nc2c1)c1ccccn1` (centres unmarked) [3AB, 7-[[[1-(2-pyridinyl)ethyl]-amino]carbonyl]-3-[4-(trifluoromethyl)phenyl]-2-quinoxalinepentanoic acid], under setting [1], the Ki fell in the range of 0.0021 to 0.02 µM. Regarding `COCCN1CCN(C(=O)c2ccc3nc(-c4ccccc4)c(CCCCC(=O)O)nc3c2)CC1` [15M, 5-(7-{[4-(2-methoxy-ethyl)piperazin-1-yl]-carbonyl}-3-phenyl-quinoxalin-2-yl) pentanoic acid], the Ki under setting [1] was in the range of 0.0201 to 0.2 µM. On the same count and under the same terms, for `O=C(O)CCCCc1nc2cc(C(=O)N3CC(c4nc5ccccc5o4)C3)ccc2nc1-c1ccccc1` [31C] the value was 0.0021 to 0.02 µM.

Regarding `O=C(O)CCCCc1nc2cc(C(=O)N[C@@H]3CCSc4ccccc43)ccc2nc1-c1ccccc1` [compound 301, (R)-5-(3-phenyl-7-(thiochroman-4-ylcarbamoyl)quinoxalin-2-yl)pentanoic acid], the Ki ([3H]PGD2 competition, Table B) fell in the range of 0.0021 to 0.02 µM. `O=C(O)CCCCc1nc2cc(C(=O)N3CCN(c4ccc(F)cc4)CC3)ccc2nc1-c1ccccc1` [compound 351, 5-(7-(4-(4-fluorophenyl)piperazine-1-carbonyl)-3-phenylquinoxalin-2-yl)pentanoic acid] yielded a Ki ([3H]PGD2 competition, Table B) of 0.0021 to 0.02 µM. On the same count and under the same terms, the result for `O=C(O)CCCCc1nc2cc(C(=O)N[C@H]3CCS(=O)(=O)c4ccccc43)ccc2nc1-c1ccccc1` [compound 714, (S)-5-(7-((1,1-dioxidothiochroman-4-yl)carbamoyl)-3-phenylquinoxalin-2-yl)pentanoic acid] reads 0.0201 to 0.2 µM; that for `COc1ccc2c(c1)CCC[C@H]2NC(=O)c1ccc2nc(-c3ccc(F)cc3)c(CCCC(F)(F)C(=O)O)nc2c1` [compound 589, (R)-2,2-difluoro-5-(3-(4-fluorophenyl)-7-((6-methoxy-1,2,3,4-tetrahydro-naphthalen-1-yl)carbamoyl)quinoxalin-2-yl)pentanoic acid], 0.0201 to 0.2 µM; that for `CC(CCc1nc2cc(C(=O)N[C@H]3CCCc4ccccc43)ccc2nc1-c1ccc(F)cc1)CC(=O)O` (stereo partly drawn) [compound 433, 5-(3-(4-fluorophenyl)-7-(((S)-1,2,3,4-tetrahydronaphthalen-1-yl)carbamoyl)quinoxalin-2-yl)-3-methylpentanoic acid], 0.0021 to 0.02 µM. The same measure, in the same setting: the result for `O=C(O)CCCc1nc2cc(C(=O)N[C@@H]3CCOc4cc(F)ccc43)ccc2nc1-c1ccccc1` [compound 725, (R)-4-(7-((7-fluorochroman-4-yl)carbamoyl)-3-phenylquinoxalin-2-yl)butanoic acid] reads 0.201 to 0.7 µM. As to `CC(NC(=O)c1ccc2nc(-c3ccccc3)c(CCCCC(=O)O)nc2c1)c1ccccc1F` (centres unmarked) [15BH, 5-(7-{[1-(2-fluorophenyl)ethyl]carbamoyl}-3-phenylquinoxalin-2-yl)pentanoic acid], the Ki under setting [1] was 0.0021 to 0.02 µM. `O=C(O)CCCCc1nc2cc(C(=O)N3CCC4(CCCc5ccccc54)C3)ccc2nc1-c1ccc(Cl)cc1` (centres unmarked) [compound 565, 5-(3-(4-chlorophenyl)-7-(3,4-dihydro-2H-spiro [naphthalene-1,3′-pyrrolidin]-1′-ylcarbonyl)quinoxalin-2-yl)pentanoic acid] returned an inhibition constant Ki ([3H]PGD2 competition, Table B) of 0.0001 to 0.002 µM.

Regarding `O=C(O)CCCCc1nc2cc(C(=O)N[C@@H]3CCCc4cc(Cl)ccc43)ccc2nc1-c1ccccc1` [compound 255, 7-[[(6-chloro-1,2,3,4-tetrahydro-1(R)-naphthalenyl)amino)carbonyl]-3-phenyl-2-quinoxalinepentanoic acid], the Ki by setting is: under setting [1], 0.0001 to 0.002 µM; under setting [2], 0.0015 µM. Consider `O=C(O)CCCCc1nc2cc(C(=O)N[C@@H]3CCc4cc(F)ccc43)ccc2nc1-c1ccc(F)cc1` [compound 223, 7-[[(5-fluoro-2,3-dihydro-1H-inden-1(R)-yl)amino]carbonyl]-3-(4-fluorophenyl)-2-quinoxalinepentanoic acid], for which the Ki under setting [1] was 0.0001 to 0.002 µM. On the same count and under the same terms, for `C[C@H](NC(=O)c1ccc2nc(-c3ccc(Cl)cc3)c(CCCCC(=O)O)nc2c1)c1cccc(Cl)c1` [compound 181, 3-(4-chlorophenyl)-7-[[[1(S)-(3-chlorophenyl)ethyl]amino]carbonyl]-2-quinoxalinepentanoic acid] the value was 0.0001 to 0.002 µM. In the case of `CN(C)c1cccc(-c2nc3ccc(C(=O)N[C@@H]4CCCc5ccccc54)cc3nc2CCCCC(=O)O)c1` [compound 330, (R)-5-(3-(3-(dimethylamino)phenyl)-7-((1,2,3,4-tetrahydronaphthalen-1-yl)carbamoyl)quinoxalin-2-yl)pentanoic acid], the inhibition constant Ki ([3H]PGD2 competition, Table B) fell in the range of 0.0021 to 0.02 µM. Same read-out and setting: for `O=C(O)CCCCc1nc2cc(C(=O)N3CC(n4cnnc4)C3)ccc2nc1-c1ccc(Cl)cc1` [compound 327, 5-(7-(3-(4H-1,2,4-triazol-4-yl)azetidine-l-carbonyl)-3-(4-chlorophenyl)quinoxalin-2-yl)pentanoic acid] the value was 0.0201 to 0.2 µM.

The term Ki denotes a measure of affinity in units of concentration, obtained from inhibition or displacement.
